Microsomal CLint and solubility data for 36 molecules are collected here from ChEMBL document CHEMBL2163233, “3-Oxoisoindoline-1-carboxamides: potent, state-dependent blockers of voltage-gated sodium channel Na(V)1.7 with efficacy in rat pain models” (J Med Chem, 2012).

≈ marks a conversion by molar mass, not a printed value.

Series [1] is described as follows: in vitro. The settings on record: rat, microsomes, CLH.
Series [2] can be described thus: in vitro. The settings on record: human, microsomes, CLH.
Series [3] in a line: physchem.

Turning to `CC1(C(=O)NCc2ccc(OC(F)(F)F)cc2)c2ccccc2C(=O)N1CCc1ccccn1` (racemic), the microsomal CLint is 57 µL/min/mg in series [1] and greater than 500 µL/min/mg in series [2].

For the molecule `O=C(NCc1ccc(OC(F)(F)F)cc1)C1c2ccccc2C(=O)N1CCc1ncccn1` (stereo unspecified), the values for the intrinsic metabolic clearance (microsomal CLint) in series [1] and in series [2] were less than 10 µL/min/mg and 33 µL/min/mg, respectively. In series [3], the solubility at 4 h was 310 µM (≈ 141 µg/mL).

`O=C(NCc1ccc(OC(F)(F)F)cc1)C1c2ccccc2C(=O)N1CCOCC(F)(F)F` (stereo unspecified): the microsomal CLint in series [1] is less than 10 µL/min/mg; in series [2], 44 µL/min/mg. The same molecule gave a solubility at 4 h in series [3] of 3 µM (≈ 1.43 µg/mL).

For `O=C(NCc1ccc(OC(F)(F)F)cc1)C1c2ccccc2C(=O)N1CCC(F)(F)F` (stereo unspecified), the microsomal CLint in series [1] and in series [2] was less than 10 µL/min/mg each time. This molecule displayed a solubility at 4 h in series [3] of 11 µM (≈ 4.91 µg/mL).

In the case of `O=C(NCc1ccc(OC(F)(F)F)cc1)C1c2ccccc2C(=O)N1CCc1cccnc1` (stereo unspecified), the microsomal CLint in series [1] was 28 µL/min/mg; in series [2], 100 µL/min/mg. This molecule showed a solubility at 4 h in series [3] of 69 µM (≈ 31.4 µg/mL).

For the molecule `O=C(NCc1ccc(OC(F)(F)F)cc1)C1c2ccccc2C(=O)N1CCc1ccncc1` (stereo unspecified), the microsomal CLint in series [1] came out at 20 µL/min/mg; in series [2], 170 µL/min/mg. The same molecule had a solubility at 4 h in series [3] of 61 µM (≈ 27.8 µg/mL).

Take `O=C(NCc1ccc(OC(F)(F)F)cc1)C1c2cccc(O)c2C(=O)N1CCc1ncc(F)cn1` (stereo unspecified): the microsomal CLint worked out at 36 µL/min/mg in series [1] and 42 µL/min/mg in series [2]. Further, the concentration in solution in series [3] (solubility at 4 h) was 2 µM (≈ 0.981 µg/mL).

As for `CC(Cc1ccccn1)N1C(=O)c2ccccc2C1C(=O)NCc1ccc(OC(F)(F)F)cc1` (stereo unspecified), the microsomal CLint in series [1] was less than 10 µL/min/mg; in series [2], 82 µL/min/mg. In series [3], this molecule came in with a solubility at 4 h of 28 µM (≈ 13.1 µg/mL).

Regarding `O=C(NCc1ccc(OC(F)(F)F)cc1)C1c2ccccc2C(=O)N1CC(F)(F)c1ccccn1` (stereo unspecified), the intrinsic metabolic clearance (microsomal CLint) in series [1] was 30 µL/min/mg; in series [2], 57 µL/min/mg. In series [3], the solubility at 4 h is 2 µM (≈ 0.983 µg/mL).

`O=C(NCc1ccc(OC(F)(F)F)cc1)C1c2cccc(F)c2C(=O)N1CCc1ccccn1` (stereo unspecified): the microsomal CLint in series [1] came out at 16 µL/min/mg; in series [2] it was 170 µL/min/mg. Besides, in series [3], the solubility at 4 h was determined as 26 µM (≈ 12.3 µg/mL).

In the case of `O=C(NCc1ccc(OC(F)(F)F)cc1)C1c2ccccc2C(=O)N1C[C@@H]1CCCO1` (stereo partly specified), the microsomal CLint in series [1] was determined as 28 µL/min/mg; in series [2], 50 µL/min/mg. The molecule also registered a solubility at 4 h in series [3] of 28 µM (≈ 12.2 µg/mL).

Turning to `O=C(NCc1ccc(OC(F)(F)F)cc1)C1c2ccccc2C(=O)N1CC1CC(F)(F)C1` (stereo unspecified), the microsomal CLint in series [1] amounted to 38 µL/min/mg; in series [2] it was 25 µL/min/mg. The same molecule yielded a solubility at 4 h in series [3] of less than 1 µM.

`O=C(NCc1cccc(Br)c1)C1c2ccccc2C(=O)N1CCc1ccccn1` (stereo unspecified): the microsomal CLint is 47 µL/min/mg in series [1] and 310 µL/min/mg in series [2]. Also, the solubility at 4 h in series [3] came to 6 µM (≈ 2.7 µg/mL).

`O=C(NCc1ccc(F)c(OC(F)(F)F)c1)C1c2ccccc2C(=O)N1CCc1ncc(F)cn1` (stereo unspecified): the microsomal CLint in series [1] turned out to be 110 µL/min/mg; in series [2], 220 µL/min/mg. In series [3], the concentration in solution (solubility at 4 h) was 27 µM (≈ 13.3 µg/mL).

With `Cc1cccc2c1C(C(=O)NCc1ccc(OC(F)(F)F)cc1)N(CCc1ccccn1)C2=O` (stereo unspecified), the microsomal CLint in series [1] was found to be 59 µL/min/mg; in series [2], 190 µL/min/mg. The molecule further gave a solubility at 4 h in series [3] of 1 µM (≈ 0.469 µg/mL).

Turning to `O=C(NCc1ccc(OCC(F)(F)F)nc1)C1c2ccccc2C(=O)N1CCc1ccccn1` (stereo unspecified), the results for the microsomal CLint in series [1] and in series [2] were less than 10 µL/min/mg and 40 µL/min/mg, respectively. Besides, the solubility at 4 h in series [3] is 88 µM (≈ 41.4 µg/mL).

In the case of `N#C[C@H]1CC[C@H](N2C(=O)c3ccccc3C2C(=O)NCc2ccc(OC(F)(F)F)cc2)CC1` (stereo partly specified), the results for the microsomal CLint in series [1] and in series [2] were 11 µL/min/mg and less than 10 µL/min/mg, respectively. Also, the solubility at 4 h in series [3] was 200 µM (≈ 91.5 µg/mL).

As to `COc1cccc2c1C(=O)N(CCc1ccccn1)C2C(=O)NCc1ccc(OC(F)(F)F)cc1` (stereo unspecified), the figures for the microsomal CLint in series [1] and in series [2] were less than 10 µL/min/mg and 50 µL/min/mg, respectively. The solubility at 4 h in series [3] came to 6 µM (≈ 2.91 µg/mL).

Turning to `O=C(NCc1ccc(CC(F)(F)F)cc1)C1c2ccccc2C(=O)N1CCc1ccccn1` (stereo unspecified), the results for the microsomal CLint in series [1] and in series [2] were 42 µL/min/mg and 190 µL/min/mg, respectively. Further, in series [3], the concentration in solution (solubility at 4 h) was 120 µM (≈ 54.4 µg/mL).

For the molecule `O=C(NCc1ccc(OC(F)(F)F)cc1)C1c2c(O)cccc2C(=O)N1CCc1ccccn1` (stereo unspecified), the microsomal CLint in series [1] amounted to 23 µL/min/mg; in series [2] it was 26 µL/min/mg. The molecule further had a solubility at 4 h in series [3] of less than 1 µM.

Consider `CC(C)(CN1C(=O)c2ccccc2C1C(=O)NCc1ccc(OC(F)(F)F)cc1)c1ccccn1` (stereo unspecified), for which the microsomal CLint in series [1] was less than 10 µL/min/mg; in series [2], 40 µL/min/mg. The molecule also had a solubility at 4 h in series [3] of 6 µM (≈ 2.9 µg/mL).

In series [3], `COc1ccc(CNC(=O)C2c3ccccc3C(=O)N2CCc2ccccn2)cc1` (stereo unspecified) yielded a solubility at 4 h of 360 µM (≈ 145 µg/mL).

As for `O=C(NCc1ccc(OC(F)(F)F)cc1)C1c2ccccc2C(=O)N1CCCc1ccccn1` (stereo unspecified), the microsomal CLint was 31 µL/min/mg in series [1] and greater than 500 µL/min/mg in series [2]. In series [3], this molecule came in with a solubility at 4 h of 6 µM (≈ 2.82 µg/mL).

On to `O=C(NCc1ccc(OC(F)(F)F)cc1)C1c2cccc(O)c2C(=O)N1CCc1ccccn1` (stereo unspecified), for which the microsomal CLint in series [1] came out at 10 µL/min/mg; in series [2], 59 µL/min/mg. This molecule also came in with a solubility at 4 h in series [3] of 15 µM (≈ 7.07 µg/mL).

For `O=C(NCc1cccc(OC(F)(F)F)c1)C1c2ccccc2C(=O)N1CCc1ccccn1` (stereo unspecified), the values for the microsomal CLint in series [1] and in series [2] were 86 µL/min/mg and 370 µL/min/mg, respectively. In series [3], this molecule registered a solubility at 4 h of 19 µM (≈ 8.65 µg/mL).

Molecule `O=C(NCc1ccc(OCC(F)(F)F)cc1)C1c2ccccc2C(=O)N1CCc1ccccn1` (stereo unspecified) came in with a solubility at 4 h in series [3] of 42 µM (≈ 19.7 µg/mL).

`O=C(NCc1ccc(OC(F)(F)F)cc1)C1c2ccccc2C(=O)N1C1CC(F)(F)C1` (stereo unspecified): the microsomal CLint in series [1] is less than 10 µL/min/mg; in series [2], 15 µL/min/mg. In series [3], the solubility at 4 h was determined as 4 µM (≈ 1.76 µg/mL).

On to `O=C(NCc1ccc(OC(F)F)nc1)C1c2ccccc2C(=O)N1CCc1ccccn1` (stereo unspecified), for which the microsomal CLint in series [1] is less than 10 µL/min/mg; in series [2], 33 µL/min/mg. This molecule showed a solubility at 4 h in series [3] of 32 µM (≈ 14 µg/mL).

Regarding `CC(NC(=O)C1c2ccccc2C(=O)N1CCc1ccccn1)c1ccc(OCC(F)(F)F)cc1` (stereo unspecified), the microsomal CLint in series [1] is 49 µL/min/mg; in series [2], 204 µL/min/mg. Besides, the concentration in solution in series [3] (solubility at 4 h) came to 34 µM (≈ 16.4 µg/mL).

Regarding `CC(C)(Cc1ccccn1)N1C(=O)c2ccccc2C1C(=O)NCc1ccc(OC(F)(F)F)cc1` (stereo unspecified), the results for the microsomal CLint in series [1] and in series [2] were 67 µL/min/mg and 340 µL/min/mg, respectively. The molecule also gave a solubility at 4 h in series [3] of 13 µM (≈ 6.29 µg/mL).

`O=C(NCc1ccc(C(F)(F)F)cc1)C1c2ccccc2C(=O)N1CCc1ccccn1` (stereo unspecified): the results for the microsomal CLint in series [1] and in series [2] were 58 µL/min/mg and 180 µL/min/mg, respectively. The molecule further gave a solubility at 4 h in series [3] of 7 µM (≈ 3.08 µg/mL).

The molecule `Cc1ccc(NC(=O)C2c3ccccc3C(=O)N2CCc2ccccn2)cc1C` (stereo unspecified) registered a solubility at 4 h in series [3] of 34 µM (≈ 13.1 µg/mL).

Consider `CC(C)(C)OC(=O)N1CC(N2C(=O)c3ccccc3C2C(=O)NCc2ccc(OC(F)(F)F)cc2)C1` (stereo unspecified), for which the microsomal CLint in series [1] is less than 10 µL/min/mg; in series [2], 43 µL/min/mg. Besides, the solubility at 4 h in series [3] came to 30 µM (≈ 15.2 µg/mL).

On to `COc1cccc2c1C(C(=O)NCc1ccc(OC(F)(F)F)cc1)N(CCc1ccccn1)C2=O` (stereo unspecified), for which the figures for the microsomal CLint in series [1] and in series [2] were 37 µL/min/mg and 97 µL/min/mg, respectively. For the same molecule, the solubility at 4 h in series [3] turned out to be 4 µM (≈ 1.94 µg/mL).

`CC(C)(C)OC(=O)N1CCC(N2C(=O)c3ccccc3C2C(=O)NCc2ccc(OC(F)(F)F)cc2)CC1` (stereo unspecified): the microsomal CLint was 89 µL/min/mg in series [1] and 170 µL/min/mg in series [2]. This molecule also showed a solubility at 4 h in series [3] of 7 µM (≈ 3.73 µg/mL).

Regarding `O=C(NCc1ccc(OC(F)(F)F)cc1)C1c2ccccc2C(=O)N1CCOc1ccccn1` (stereo unspecified), the values for the microsomal CLint in series [1] and in series [2] were 39 µL/min/mg and 190 µL/min/mg, respectively. The solubility at 4 h in series [3] is less than 1 µM.

A word on the microsomal CLint: it is the capacity of the preparation to metabolise the compound, expressed as a volume cleared per time. Read a high microsomal CLint as faster metabolism. A word on the solubility: it is the dissolved amount per volume that the medium holds. Read a high solubility as a readily soluble substance.
